In paper PMC5441580, “GPR40 partial agonist MK-2305 lower fasting glucose in the Goto Kakizaki rat via suppression of endogenous glucose production” (PLoS ONE, 2017):
“And” between values parts separate entries of the source, which are not always exact repeats. Identical values can stand only once.

What was measured:
rat GPR120 (FFAR4) = molecular target: T1, rat GPR120 (FFAR4) (Rattus norvegicus, UniProt Q2AC31); assay: IP1 functional assay, HEK293 cells stably expressing rat GPR120; assay type: cell-based; conditions: individual experiments (raw data of Table 1)
T1 construct: expressed in transfected cells
T1 sequence (Q2AC31 1-361): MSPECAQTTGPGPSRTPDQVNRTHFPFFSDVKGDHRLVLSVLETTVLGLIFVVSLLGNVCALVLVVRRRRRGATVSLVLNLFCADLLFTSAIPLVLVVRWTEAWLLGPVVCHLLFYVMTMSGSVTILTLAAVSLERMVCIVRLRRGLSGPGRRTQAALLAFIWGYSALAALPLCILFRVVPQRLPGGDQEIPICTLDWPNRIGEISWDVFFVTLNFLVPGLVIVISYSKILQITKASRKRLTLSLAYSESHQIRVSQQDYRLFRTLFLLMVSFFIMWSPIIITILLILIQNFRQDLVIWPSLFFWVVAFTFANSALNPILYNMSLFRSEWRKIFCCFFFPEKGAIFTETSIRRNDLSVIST
Procedure: CHO Jump-IN cells stably expressing rat GPR40 or HEK293 Jump-IN cells stably expressing rat GPR120 were cultured in DMEM media supplemented with 10% dialyzed FBS, non-essential amino acids, penicillin/streptomycin, 10 μg/ml Blasticidin S HCL and 200 or 100 μg/ml Hygromycin B, respectively (Life Technologies). Cell stocks were maintained and grown in a sub-confluent state using standard cell culture procedures. The day before the experiment, the cells were harvested with non-enzymatic cell dissociation buffer and re-suspended in DMEM supplemented as described above at 0.15 million cells per ml. […] The seeded plates were incubated overnight at 37°C in a humidified environment.
On the day of the experiment, the growth media was removed from the assay plate by centrifugation using a BlueCatBio BlueWasher, protocol #21 “Light Dry” and 10 μl of IP1 stimulation buffer (prepared according to the Cisbio IP-one Tb HTRF kit) is added to each well. Test compounds were dissolved and serially diluted in DMSO as 200X the final assay concentration and 50 nl of the compound dilution was acoustically added to each well of the assay plates. The plates were then incubated for 60 minutes at room temperature and 10 μl of detection buffer (prepared according to the IP-one Tb HTRF kit) is added to each well of the assay plate. […] Maximal % activation and EC50 are then determined for each test compound.

GK rats = assay: GK rat acute oral glucose tolerance test (OGTT) with insulin co-measurement; assay type: in vivo; parameters: Blood Glucose AUC / Insulin AUC: unit not given here; conditions: for Blood Glucose / Insulin (plasma) / Insulin AUC / Blood Glucose AUC: individual GK rats; for Insulin AUC: OGTT t = 0 to 60 min; for Blood Glucose AUC: OGTT t = 0 to 120 min
Procedure: On the day of the study, male GK rats were bled via tail snip, and blood glucose was measured via glucometer (OneTouch Ultra, Lifescan Inc., Milpitas, CA). Fed glucose was measured at 8 A.M. (lights on 7 A.M.– 7 P.M.) and used to select and sort animals into treatment groups (n = 8/ GK group, plus n = 6/WKY control group). Animals were then placed into clean cages, and food was removed. […] Dosages from 0.3–10 mg MK-2305 / kg body weight were tested. Both the GK and WKY control groups received vehicle (0.5% methylcellulose). Blood glucose was measured again (time = 0) immediately prior to a dextrose challenge of 1 g/kg at 10 ml/kg dose volume (Dextrose, Hospira Inc., Lake Forrest IL) and then again at 20, 40, 60, and 120 min after the glucose challenge. Insulin was co-measured to test the glucose-dependent secretory response to MK-2305 delivered acutely PO. […] […] Values of percent inhibition vs. vehicle for each treatment were generated from the AUC data. Maximally efficacious dose (MED) was defined as the minimum dosage generating a maximum inhibition of glucose excursion achieved with this compound in the OGTT assay.
Plasma was analyzed for triglycerides, NEFA, and HbA1C using a P Modular Roche Clinical Chemistry analyzer. Liver triglycerides were extracted as described by Bligh and Dyer, and were measured using the Infinity triglyceride assay kit (Thermo Scientific, Rockford, IL). Plasma insulin levels were measured via EIA (Mesoscale Discovery ELISA Kit, Gaithersburg MD).

GPR40 receptor = conditions: cited from earlier work
[1] = 10 mg/kg PO, GK rats, p < 0.001
[2] = 0.3 mpk PO, 60 min after glucose challenge
[3] = 1 mpk PO, 60 min after glucose challenge
[4] = 3 mpk PO, 60 min after glucose challenge
[5] = 10 mpk PO, 60 min after glucose challenge

With `O=C1NC(=O)C(C2CCOc3cc(Oc4ccc(C(F)(F)F)cc4Cl)ccc32)S1` (stereo not drawn) [MK-2305] the “% Activation” value (rat GPR120 (FFAR4)) was -22% and -18% and -16% and 8%, the EC50 (rat GPR120 (FFAR4)) was over 10 µM and the “decrease of glucose AUC vs. vehicle in OGTT” value (GK rats; 0.3 mg/kg PO, GK rats, p < 0.001) was 18%. For the same compound, the “increase in plasma insulin vs. vehicle during OGTT” value (from here on “increase”) (GK rats; 1 mg/kg PO, GK rats, p < 0.001) was 59%, the “increase” value (GK rats; 3 mg/kg PO, GK rats, p < 0.001) was 83% and the “reduction in glucose AUC from vehicle in OGTT” value (GK rats; 3 mg/kg PO, GK rats, p < 0.001) was 40%. For the same compound, the “decrease of glucose AUC vs. vehicle in OGTT” value (GK rats; [1]) was 54%, the “increase” value (GK rats; [1]) was 124% and the “Blood Glucose” value (GK rats; 0.3 mpk PO, 40 min after glucose challenge) was 254 mg/dl and 284 mg/dl and 328 mg/dl and 294 mg/dl (2×) and 264 mg/dl and 219 mg/dl and 321 mg/dl. For the same compound, the “Blood Glucose” value (GK rats; [2]) was 197 mg/dL and 204 mg/dL and 264 mg/dL and 233 mg/dL and 229 mg/dL and 270 mg/dL and 209 mg/dL and 330 mg/dL, the “Insulin (plasma)” value (GK rats; [2]) was 1.219 ng/mL and 1.901 ng/mL and 1.676 ng/mL and 1.551 ng/mL and 1.782 ng/mL and 1.959 ng/mL and 1.355 ng/mL and 1.696 ng/mL and the “Blood Glucose” value (GK rats; 0.3 mpk PO, 120 min after glucose challenge) was 149 mg/dL and 196 mg/dL and 217 mg/dL and 188 mg/dL and 177 mg/dL and 203 mg/dL and 145 mg/dL and 249 mg/dL. For the same compound, the “Insulin AUC” value (GK rats; 0.3 mpk PO) was 107.011 and 73.5773 and 77.5052 and 96.9965 and 105.345 and 92.3289 and 113.426 and 113.509, the “Blood Glucose AUC” value (GK rats; 0.3 mpk PO) was 30355 and 22170 and 34265 and 24465 and 25900 and 30390 and 27140 and 25850 and the “Insulin (plasma)” value (GK rats; 0.3 mpk PO, time 0 min (before glucose challenge)) was 1.527 ng/mL and 1.4 ng/mL and 1.238 ng/mL and 1.748 ng/mL and 1.648 ng/mL and 1.595 ng/mL and 1.041 ng/mL and 1.268 ng/mL. For the same compound, the “Insulin (plasma)” value (GK rats; 0.3 mpk PO, time -70 min (before dosing)) was 0.785 ng/mL and 1.027 ng/mL and 1.247 ng/mL and 1.425 ng/mL and 1.262 ng/mL and 0.879 ng/mL and 0.539 ng/mL and 0.638 ng/mL, the “Blood Glucose” value (GK rats; 1 mpk PO, 40 min after glucose challenge) was 191 mg/dL and 247 mg/dL and 193 mg/dL and 178 mg/dL and 222 mg/dL and 184 mg/dL and 221 mg/dL and 228 mg/dL and the “Blood Glucose” value (GK rats; [3]) was 162 mg/dL and 197 mg/dL and 120 mg/dL and 151 mg/dL and 200 mg/dL and 153 mg/dL and 188 mg/dL and 185 mg/dL. For the same compound, the “Insulin (plasma)” value (GK rats; [3]) was 1.868 ng/mL and 1.957 ng/mL and 1.358 ng/mL and 2.073 ng/mL and 2.523 ng/mL and 1.285 ng/mL and 2.265 ng/mL and 1.751 ng/mL, the “Blood Glucose” value (GK rats; 1 mpk PO, 120 min after glucose challenge) was 120 mg/dL and 147 mg/dL and 101 mg/dL and 113 mg/dL and 162 mg/dL and 119 mg/dL and 110 mg/dL and 132 mg/dL and the “Insulin AUC” value (GK rats; 1 mpk PO) was 127.564 and 125.822 and 145.583 and 145.346 and 124.296 and 92.8339 and 131.803 and 160.953. For the same compound, the “Blood Glucose AUC” value (GK rats; 1 mpk PO) was 18600 and 21570 and 21405 and 19360 and 22440 and 17695 and 17840 and 23185, the “Insulin (plasma)” value (GK rats; 1 mpk PO, time 0 min (before glucose challenge)) was 1.711 ng/mL and 2.457 ng/mL and 1.219 ng/mL and 2.149 ng/mL and 2.161 ng/mL and 2.386 ng/mL and 1.648 ng/mL and 2.525 ng/mL and the “Insulin (plasma)” value (GK rats; 1 mpk PO, time -70 min (before dosing)) was 0.867 ng/mL and 1.049 ng/mL and 0.952 ng/mL and 1.247 ng/mL and 1.294 ng/mL and 0.937 ng/mL and 1.068 ng/mL and 1.695 ng/mL. The “Blood Glucose” value (GK rats; 3 mpk PO, 40 min after glucose challenge) was 134 mg/dl and 184 mg/dl and 174 mg/dl (2×) and 183 mg/dl and 148 mg/dl and 181 mg/dl and 197 mg/dl, the “Blood Glucose” value (GK rats; [4]) was 117 mg/dl and 116 mg/dl (2×) and 128 mg/dl and 136 mg/dl and 121 mg/dl and 86 mg/dl and 167 mg/dl and the “Insulin (plasma)” value (GK rats; [4]) was 1.611 ng/mL and 1.625 ng/mL and 1.542 ng/mL and 2.593 ng/mL and 2.136 ng/mL and 0.682 ng/mL and 1.668 ng/mL and 1.737 ng/mL. For the same compound, the “Blood Glucose” value (GK rats; 3 mpk PO, 120 min after glucose challenge) was 98 mg/dl and 130 mg/dl and 111 mg/dl and 112 mg/dl and 104 mg/dl (2×) and 78 mg/dl and 124 mg/dl, the “Insulin AUC” value (GK rats; 3 mpk PO) was 154.858 and 139.888 and 150.655 and 143.381 and 149.287 and 136.931 and 166.524 and 165.471 and the “Blood Glucose AUC” value (GK rats; 3 mpk PO) was 13845 and 15230 and 19575 and 14655 and 17655 and 16235 and 16890 and 15775. For the same compound, the “Insulin (plasma)” value (GK rats; 3 mpk PO, time 0 min (before glucose challenge)) was 2.038 ng/mL and 2.813 ng/mL and 2.511 ng/mL and 1.822 ng/mL and 2.53 ng/mL and 1.993 ng/mL and 3.94 ng/mL and 2.292 ng/mL, the “Insulin (plasma)” value (GK rats; 3 mpk PO, time -70 min (before dosing)) was 1.014 ng/mL and 1.059 ng/mL and 0.86 ng/mL and 1.354 ng/mL and 1.26 ng/mL and 1.009 ng/mL and 0.738 ng/mL and 0.715 ng/mL and the “Insulin (plasma)” value (GK rats; 10 mpk PO, 10 min after glucose challenge) was 2.601 ng/mL and 2.364 ng/mL and 2.726 ng/mL and 5.09 ng/mL. For the same compound, the “Blood Glucose” value (GK rats; 10 mpk PO, 40 min after glucose challenge) was 175 mg/dL and 159 mg/dL and 143 mg/dL and 141 mg/dL and 190 mg/dL and 140 mg/dL and 169 mg/dL and 138 mg/dL, the “Blood Glucose” value (GK rats; [5]) was 112 mg/dL and 121 mg/dL and 110 mg/dL and 96 mg/dL and 134 mg/dL and 125 mg/dL and 136 mg/dL and 122 mg/dL and the “Insulin (plasma)” value (GK rats; [5]) was 3.212 ng/mL and 2.293 ng/mL and 2.244 ng/mL and 2.355 ng/mL and 1.203 ng/mL and 2.734 ng/mL and 1.35 ng/mL and 1.965 ng/mL. For the same compound, the “Blood Glucose” value (GK rats; 10 mpk PO, 120 min after glucose challenge) was 95 mg/dL and 96 mg/dL and 92 mg/dL and 103 mg/dL and 108 mg/dL and 106 mg/dL and 90 mg/dL and 86 mg/dL, the “Insulin AUC” value (GK rats; 10 mpk PO) was 214.776 and 171.523 and 203.357 and 192.34 and 162.197 and 187.807 and 233.894 and 115.015 and the “Blood Glucose AUC” value (GK rats; 10 mpk PO) was 15625 and 16245 and 14660 and 15615 and 15760 and 13890 and 14070 and 17780. The “Insulin (plasma)” value (GK rats; 10 mpk PO, time 0 min (before glucose challenge)) was 4.429 ng/mL and 3.472 ng/mL and 2.279 ng/mL and 3.372 ng/mL and 2.041 ng/mL and 3.234 ng/mL and 3.429 ng/mL and 2.217 ng/mL, the “Insulin (plasma)” value (GK rats; 10 mpk PO, time -70 min (before dosing)) was 1.186 ng/mL and 1.004 ng/mL and 1.491 ng/mL and 1.304 ng/mL and 0.764 ng/mL and 1.19 ng/mL and 0.996 ng/mL and 0.784 ng/mL and the “Blood Glucose” value (GK rats; 10 mpk PO, time AM (fed, before dosing)) was 188 mg/dL and 169 mg/dL and 124 mg/dL and 160 mg/dL. For the same compound, the “MED (maximally efficacious dose) in OGTT” value (GK rats; GK rats, PO) was 3 mg/kg, the “binding site on GPR40” value (GPR40 receptor) was “binds to the same site as other GPR40 partial agonists such as AMG837 and TAK-875” and the “effect on binding of AgoPAM's” value (GPR40 receptor) was “augments the binding of AgoPAM’s such as AM1638”.
